In US8592580B2, “Substituted triazinone derivatives” (Sanofi, priority 2008, dated 2013):

Tests used:
GSK3β = GSK3β (Homo sapiens, UniProt P49841); assay: Inhibitory activity against GSK3β (33P-ATP phosphorylation of prephosphorylated GS1 peptide, four protocols); type: biochemical; conditions: protocol 3: 7.5 μM GS1 peptide, 10 μM ATP, 50 mM Hepes pH 7.2, one hour at room temperature
Procedure: Inhibitory Activity of the Medicament of the Present Invention Against GSK3β Four different protocols can be used. In a first protocol: 7.5 μM of prephosphorylated GS1 peptide and 10 μM ATP (containing 300,000 cpm of ^33P-ATP) were incubated in 25 mM Tris-HCl, pH 7.5, 0.6 mM DTT, 6 mM MgCl2, 0.6 mM EGTA, 0.05 mg/ml BSA buffer for 1 hour at room temperature in the presence of GSK3beta (total reaction volume: 100 microliters). In a second protocol: 4.1 μM of prephosphorylated GS1 peptide and 42 μM ATP (containing 260,000 cpm ^33P-ATP) were incubated in 80 mM Mes-NaOH, pH 6.5, 1 mM Mg acetate, 0.5 mM EGTA, 5 mM 2-mercaptoethanol, 0.02% Tween 20, 10% glycerol buffer for 2 hours at room temperature in the presence of GSK3beta. In a third protocol: 7.5 μM of prephosphorylated GS1 peptide and 10 μM ATP (containing 300,000 cpm of ^33P-ATP) were incubated in 50 mM Hepes, pH 7.2, 1 mM DTT, 1 mM MgCl2, 1 mM EGTA, 0.01% Tween 20 buffer for one hour at room temperature in the presence of GSK3beta (total reaction volume: 100 microliters). […] Incorporated ^33P radioactivity was determined by liquid scintillation spectrometry. […]

Sequence of GSK3β (P49841 whole entry): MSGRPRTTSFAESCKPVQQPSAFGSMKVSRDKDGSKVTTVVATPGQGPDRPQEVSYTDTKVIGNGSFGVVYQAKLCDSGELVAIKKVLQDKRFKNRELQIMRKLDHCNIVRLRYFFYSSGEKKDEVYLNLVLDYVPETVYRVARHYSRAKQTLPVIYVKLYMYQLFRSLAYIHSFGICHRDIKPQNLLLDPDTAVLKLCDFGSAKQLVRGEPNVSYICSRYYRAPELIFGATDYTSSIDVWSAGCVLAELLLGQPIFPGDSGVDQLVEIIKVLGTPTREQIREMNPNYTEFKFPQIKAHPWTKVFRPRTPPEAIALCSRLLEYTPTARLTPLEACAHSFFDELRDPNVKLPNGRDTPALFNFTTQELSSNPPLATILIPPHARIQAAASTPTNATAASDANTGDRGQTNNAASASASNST

Compound | melting point [°C] | IC50 (GSK3β) [nM]
Cn1c(NCC(O)c2ccccc2)nc(-c2ccncc2)nc1=O (racemic) [Compound No. 1, (+/−)-6-(2-Hydroxy-2-phenyl-ethylamino)-1-methyl-4-pyridin-4-yl-1H-[1,3,5]triazin-2-one] | 242 to 244 | 372
O=c1nc(-c2ccncc2)nc(NCCc2ccccc2)[nH]1 [compound 5, 6-(2-Phenylethyl)amino-4-pyridin-4-yl-1H-[1,3,5]triazin-2-one] | 235 to 237 | 50
